The source of these data is a melting point compilation (Tetko et al.; mined from patent text by program, amines drawn as free bases though some values may be those of a salt).

Each structure is given as a SMILES string.

Usually melting point stands for the temperature of the solid-liquid transition. Molecule `Cc1cc(-n2cnn(Cc3ccc(F)cc3)c2=O)sc1C(=O)NCc1cnn(C)c1` yielded a melting point of 168 to 170 °C. As for `CSc1c(C)c(-c2ccc(Cl)cc2Cl)nn1C`, the figure is 65 to 66 °C; as for `CN(C(=O)CCNC#N)c1nnc(-c2cccnc2)s1`, 155 to 159 °C; as for `CCc1ccc2c(O)c(-c3nnnn3C)cnc2c1`, 270 to 273 °C. For the molecule `Cc1nc2ccccn2c1CN1CCC(Nc2nc3ccccc3n2Cc2ccc(F)cc2)CC1`, the melting point turned out to be 198 °C. In the case of `COC(=O)C1CC(=O)C(CC(=O)O)C1C[N+](=O)[O-]` (single isomer, unassigned; (-)), the melting point was 111 to 112 °C. In the case of `CN(C)C=C1C(=O)N(c2cccc(Cl)c2)c2ccccc21`, the melting point lay in the range of 116 to 118 °C.

Molecule `CC(C)(C)C1OC1C(O)c1ccccc1` (stereo not drawn) had a melting point of 57 to 59 °C. As for `O=C(Nc1cccc(S(=O)(=O)NCc2ccccc2)c1)c1cnn2c(C(F)(F)F)cc(-c3ccc(C(F)(F)F)cc3)nc12`, the figure is 227 °C. In turn, `CCNC(=O)CCc1cnoc1-c1ccccc1` returned a melting point of 75 to 76 °C.

In turn, `C=CCONC(CCC)=C1C(=O)C=C(C)OC1=O` had a melting point of 52 to 54 °C. The molecule `Cc1cccc(C(=O)NO)c1N(C)S(=O)(=O)c1ccc(OCCCNC(=O)c2cc3ccccc3[nH]2)cc1` came in with a melting point of 144 to 146 °C. For `COc1cc(Cl)c([N+](=O)[O-])cc1C(=O)O`, the melting point fell in the range of 184 to 185 °C. Take `Cc1ccc(C)c(C2CC(=O)C(C(=O)c3ccccc3)=C(O)C2)c1` (stereo not drawn): the melting point fell in the range of 182 to 185 °C. In turn, `Fc1ccc([C@@H]2CCN(Cc3ccccc3)C[C@H]2COc2ccc3c(c2)OCO3)cc1` gave a melting point of 98 to 100 °C. Take `CCOC(=O)C(C(=O)OCC)N(Cc1ccccc1)Cc1ccc(OC)cc1OC`: the melting point is 62 to 63 °C.

For `COc1ccccc1-c1cccc(CC(NC(=O)c2c(Cl)cccc2Cl)C(=O)O)c1` (racemic), the melting point was 104 °C.

For `CCOC(=O)c1nn(-c2ccc(Cl)cc2)c2c1CCCC2`, the melting point lay within 139 to 140 °C. As for `C=C(C)COc1ccc2c(=O)c(C)c(-c3ccccc3)oc2c1C(=O)C=Cc1cc(OC)c(OC)c(OC)c1`, the figure is 82 to 84 °C; as for `COc1nn(-c2cccc(NC(C)=O)c2)c(=O)n(Cc2ccc3c(c2)OC(F)(F)O3)c1=O`, 184 °C; as for `COc1ccccc1N1CCN(CCn2c(=O)c3ccsc3n(C)c2=O)CC1`, 174 to 176 °C.

In turn, `C=CCN(CC=C)S(=O)(=O)c1ccc([N+](=O)[O-])cc1[N+](=O)[O-]` had a melting point of 105 to 106 °C.

Take `N#CC1=C(N)Oc2c(ccc3cnccc23)C1c1cccc([N+](=O)[O-])c1` (stereo not drawn): the melting point fell in the range of 239 to 243 °C. The molecule `CCCCNC(=O)C(C)CC(O)C1C[C@H](C)CCCCCCNc2cc(cc(OC)n2)C(=O)N1` (stereo partly drawn) showed a melting point of 178 to 182 °C.

The molecule `O=C1C=c2c(c3[nH]c4c(c3c3c2=CN=C3)CCCC4)C1` displayed a melting point of over 300 °C. `Brc1cc(Br)c2c(c1)CCN2`: the melting point is 164 to 165 °C. `N=C(N)Nc1c(Cl)cccc1Cl` displayed a melting point of 213 °C. On to `Cn1cc(-c2ccccc2)c(=O)c(-c2c(Cl)cccc2Cl)c1`, for which the melting point lay within 223 to 226 °C.

As for `COc1ccc(C(=O)O)c(COc2ccc(CC(=O)O)cc2)c1`, the melting point was 198 to 200 °C. For `CCOC(=O)CCc1cn(Cc2cccc(C(=O)Nc3cccnc3)c2)nc1-c1ccccc1`, the melting point was 111 to 112 °C.

Molecule `COC(=O)c1[nH]c2c(C)ccc(C)c2c1S(C)=O` (stereo not drawn) returned a melting point of 127 °C. Take `Cc1nn(-c2ccc(F)cc2)cc1C(=O)Nc1ccc(N2CCC(O)CC2)c(C#N)c1`: the melting point fell in the range of 224 to 225 °C. `O=C(O)CCn1cc(Br)c2c3c(c(-c4ccccc4Cl)cc21)C(=O)NC3=O` registered a melting point of 182 to 186 °C. For `CCCCCCCCCCCCOc1ccc(-c2cc3ccccc3[nH]2)cc1`, the melting point worked out at 204 °C. The molecule `O=C(NC[C@@H]1CCNC[C@H]1O)c1cc(Cl)cc2c1OCCCO2` had a melting point of 114 °C. `CCOC(=O)n1ccc2cc(N)ccc21` gave a melting point of 113 to 114 °C. As for `ON=Cc1ccc(-c2ccc(O)c(F)c2)c2ccccc12`, the figure is 187 to 188 °C; as for `CCCCCCCCCCCC=CC(O)C(COC1OC(CO)C(O)C(O)C1O)NC(=O)CCCCCCCCCCCCCCCCC` (stereo not drawn), 209 to 210 °C.

Regarding `O=C(NC1N=C(c2ccccc2)c2ccccc2NC1=O)c1ccc2ccccc2c1` (racemic), the melting point was in the range of 293 to 294 °C.

Turning to `CCCCCCCCCCCCCCCc1cc2cc(C(=O)O)ccc2n1C`, the melting point fell in the range of 127 to 128 °C.

Molecule `c1ccc(COc2ccc3c(c2)N=C(NCc2cccnc2)c2ccccc2N3)cc1` showed a melting point of 196 to 197 °C.

`Cc1cc(C)cc(N(CCO)Cc2ccc3nc(NCCCN4CCOCC4)n(Cc4nc(C)ccc4O)c3c2)c1` yielded a melting point of 180 °C.

`Cc1nc(-c2cc(N)c(=O)[nH]c2C)cs1`: the melting point lay within 192 to 194 °C. In turn, `O=c1ccn2c(c1O)C(c1ccc(Br)cc1)OCC2` (stereo not drawn) gave a melting point of 200 to 212 °C. Take `CN1CCN(CCCn2c(N)nc3ccccc32)CC1`: the melting point lay within 195 to 197 °C. Turning to `O=C(O)C1(c2ccco2)CC1`, the melting point lay within 113 to 114 °C.

For `CCCc1cc(CCCOc2c(C)cc(-c3noc(C)n3)cc2C)on1`, the melting point was in the range of 69 to 70 °C. The value for `Cc1nc(-c2c(F)cccc2Cl)n[nH]1` was 232 to 233 °C; that for `CC(C)(C)ONC(=O)Oc1ccccc1` was 124 to 126 °C; that for `Cc1[nH]c(C(=O)NCCc2ccccn2)c(C)c1-c1nc2ccc(Oc3ccccc3)cc2[nH]1` was 290 to 293 °C. For the molecule `COC(=O)CCc1sc(N)nc1-c1ccccc1`, the melting point fell in the range of 130 to 131 °C. The molecule `NC(=O)c1sc2nccc(NC3CCCCC3)c2c1N` had a melting point of 244 to 247 °C. In turn, `O=C(NCCn1cncn1)c1sc2ccccc2c1Cl` registered a melting point of 151 to 152 °C. On to `COC(=O)c1ccccc1-c1cc(F)cc(OCc2ccc3c(-c4ccoc4)cc(C#N)nc3c2)c1`, for which the melting point lay within 152 to 154 °C. Take `CC1(C)CC(OC(=O)Nc2ccccc2)CC(C)(C)N1CC(O)c1ccccc1` (stereo not drawn): the melting point was 186 to 187 °C. The molecule `N#Cc1c(N2CCNCC2)c2cccnc2n(Cc2ccccc2)c1=O` had a melting point of 211 °C.

Regarding `CCN(CC)CC(=O)N1c2ccccc2N(C)S(=O)(=O)c2ccccc21`, the melting point was 161 to 162 °C. Regarding `COc1ccc(C(=O)CCCCCN2CCC(CNC(=O)c3cc(Cl)c(N)cc3OC)CC2)cc1F`, the melting point was in the range of 112 to 113 °C.

In turn, `CC1(C)C(=O)Nc2cc3[nH]c(C4CCCCC4)nc3cc21` gave a melting point of 315 to 318 °C. The value for `CCn1cc(C(=O)O)c(=O)c2c(F)c(F)c(N3CCSCC3)c(F)c21` was 308 to 310 °C; that for `COC(=O)[C@H](CO)NC(=O)[C@H](CS)NC(C)=O` was 127 to 128 °C; that for `CCc1ccc2[nH]c(SCC(F)(F)F)nc2c1` was 127 to 129 °C. As to `Cc1ccc(NC(=O)c2cc(Cl)cc(C)n2)nc1`, the melting point was determined as 159 °C.
